What all share (assay): cell-based
One experiment addresses hNav1.7 (Homo sapiens, UniProt Q15858). In kind it is cell-based. The conditions noted are these: IonWorks Quattro, read-out: IWQ Use Nav1.7.
In another experiment the target is hNav1.5 (Homo sapiens, UniProt Q14524). The conditions noted are these: IonWorks Quattro, read-out: IWQ Use Nav1.5.
A further experiment deals with hNav1.3 (Homo sapiens, UniProt Q9NY46). As to conditions: IonWorks Quattro, read-out: IWQ Use Nav1.3.

Structures are written as SMILES. Like-named read-outs stand apart in the source and are kept apart here. Positions of bridges follow the written chain, without caps; N, C: chain ends. Non-standard residues stand in square brackets, D forms with d. Residues, ends and D or L forms follow the SMILES beside them. Trp(1-Me) = Cn1cc(C[C@H](N)C(=O)O)c2ccccc21; Phe(4-I) = N[C@@H](Cc1ccc(I)cc1)C(=O)O

Sequence of hNav1.5 (Q14524 whole entry, looked up): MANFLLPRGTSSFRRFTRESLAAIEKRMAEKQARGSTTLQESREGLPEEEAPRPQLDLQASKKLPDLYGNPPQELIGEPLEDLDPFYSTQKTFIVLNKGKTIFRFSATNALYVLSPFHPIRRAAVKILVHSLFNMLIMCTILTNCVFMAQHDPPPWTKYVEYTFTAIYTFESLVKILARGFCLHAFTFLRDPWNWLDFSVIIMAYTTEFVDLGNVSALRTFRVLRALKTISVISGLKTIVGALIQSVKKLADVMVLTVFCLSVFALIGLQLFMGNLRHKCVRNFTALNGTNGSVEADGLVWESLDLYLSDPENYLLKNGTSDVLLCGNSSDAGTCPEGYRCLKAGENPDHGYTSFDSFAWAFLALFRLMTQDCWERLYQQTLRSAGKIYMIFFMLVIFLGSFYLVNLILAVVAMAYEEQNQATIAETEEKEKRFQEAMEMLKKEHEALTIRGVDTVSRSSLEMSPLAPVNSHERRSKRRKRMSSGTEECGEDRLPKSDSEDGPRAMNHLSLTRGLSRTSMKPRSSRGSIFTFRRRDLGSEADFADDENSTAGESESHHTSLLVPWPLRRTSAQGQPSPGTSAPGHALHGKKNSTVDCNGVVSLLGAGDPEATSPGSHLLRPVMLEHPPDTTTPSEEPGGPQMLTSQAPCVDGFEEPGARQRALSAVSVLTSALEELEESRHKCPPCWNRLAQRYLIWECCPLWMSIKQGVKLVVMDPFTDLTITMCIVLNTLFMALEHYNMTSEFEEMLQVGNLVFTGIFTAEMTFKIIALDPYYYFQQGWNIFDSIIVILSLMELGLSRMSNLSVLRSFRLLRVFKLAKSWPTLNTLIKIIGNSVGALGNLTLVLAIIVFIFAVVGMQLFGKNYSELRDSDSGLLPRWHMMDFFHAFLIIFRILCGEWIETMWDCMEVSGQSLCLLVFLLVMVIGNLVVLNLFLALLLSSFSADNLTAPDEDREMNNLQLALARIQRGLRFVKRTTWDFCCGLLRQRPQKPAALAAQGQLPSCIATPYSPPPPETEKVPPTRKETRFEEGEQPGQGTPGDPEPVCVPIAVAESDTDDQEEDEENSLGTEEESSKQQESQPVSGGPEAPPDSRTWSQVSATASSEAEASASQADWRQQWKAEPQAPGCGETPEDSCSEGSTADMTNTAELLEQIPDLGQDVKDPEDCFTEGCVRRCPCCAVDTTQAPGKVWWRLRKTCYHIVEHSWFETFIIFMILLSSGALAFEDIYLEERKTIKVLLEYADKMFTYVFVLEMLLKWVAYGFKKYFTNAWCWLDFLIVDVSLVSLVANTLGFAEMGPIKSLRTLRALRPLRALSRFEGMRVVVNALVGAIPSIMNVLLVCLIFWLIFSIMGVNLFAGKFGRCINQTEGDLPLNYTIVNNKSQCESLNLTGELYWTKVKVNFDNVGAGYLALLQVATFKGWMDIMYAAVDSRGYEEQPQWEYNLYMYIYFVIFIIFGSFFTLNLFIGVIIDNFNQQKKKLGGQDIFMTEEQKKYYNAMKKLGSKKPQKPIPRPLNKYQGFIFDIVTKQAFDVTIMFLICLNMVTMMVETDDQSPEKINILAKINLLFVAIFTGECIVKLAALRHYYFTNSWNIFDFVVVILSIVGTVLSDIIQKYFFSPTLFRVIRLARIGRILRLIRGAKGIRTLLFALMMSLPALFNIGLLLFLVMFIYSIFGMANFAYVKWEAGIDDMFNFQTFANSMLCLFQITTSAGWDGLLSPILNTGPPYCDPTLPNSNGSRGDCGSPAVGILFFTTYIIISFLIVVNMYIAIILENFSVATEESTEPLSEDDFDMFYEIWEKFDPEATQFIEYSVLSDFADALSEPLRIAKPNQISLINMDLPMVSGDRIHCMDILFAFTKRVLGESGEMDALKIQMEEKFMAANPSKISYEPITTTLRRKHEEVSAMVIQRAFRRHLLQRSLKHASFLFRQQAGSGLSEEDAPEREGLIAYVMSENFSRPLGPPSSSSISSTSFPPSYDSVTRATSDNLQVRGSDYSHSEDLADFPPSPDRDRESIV
Sequence of hNav1.3 (Q9NY46 whole entry, looked up): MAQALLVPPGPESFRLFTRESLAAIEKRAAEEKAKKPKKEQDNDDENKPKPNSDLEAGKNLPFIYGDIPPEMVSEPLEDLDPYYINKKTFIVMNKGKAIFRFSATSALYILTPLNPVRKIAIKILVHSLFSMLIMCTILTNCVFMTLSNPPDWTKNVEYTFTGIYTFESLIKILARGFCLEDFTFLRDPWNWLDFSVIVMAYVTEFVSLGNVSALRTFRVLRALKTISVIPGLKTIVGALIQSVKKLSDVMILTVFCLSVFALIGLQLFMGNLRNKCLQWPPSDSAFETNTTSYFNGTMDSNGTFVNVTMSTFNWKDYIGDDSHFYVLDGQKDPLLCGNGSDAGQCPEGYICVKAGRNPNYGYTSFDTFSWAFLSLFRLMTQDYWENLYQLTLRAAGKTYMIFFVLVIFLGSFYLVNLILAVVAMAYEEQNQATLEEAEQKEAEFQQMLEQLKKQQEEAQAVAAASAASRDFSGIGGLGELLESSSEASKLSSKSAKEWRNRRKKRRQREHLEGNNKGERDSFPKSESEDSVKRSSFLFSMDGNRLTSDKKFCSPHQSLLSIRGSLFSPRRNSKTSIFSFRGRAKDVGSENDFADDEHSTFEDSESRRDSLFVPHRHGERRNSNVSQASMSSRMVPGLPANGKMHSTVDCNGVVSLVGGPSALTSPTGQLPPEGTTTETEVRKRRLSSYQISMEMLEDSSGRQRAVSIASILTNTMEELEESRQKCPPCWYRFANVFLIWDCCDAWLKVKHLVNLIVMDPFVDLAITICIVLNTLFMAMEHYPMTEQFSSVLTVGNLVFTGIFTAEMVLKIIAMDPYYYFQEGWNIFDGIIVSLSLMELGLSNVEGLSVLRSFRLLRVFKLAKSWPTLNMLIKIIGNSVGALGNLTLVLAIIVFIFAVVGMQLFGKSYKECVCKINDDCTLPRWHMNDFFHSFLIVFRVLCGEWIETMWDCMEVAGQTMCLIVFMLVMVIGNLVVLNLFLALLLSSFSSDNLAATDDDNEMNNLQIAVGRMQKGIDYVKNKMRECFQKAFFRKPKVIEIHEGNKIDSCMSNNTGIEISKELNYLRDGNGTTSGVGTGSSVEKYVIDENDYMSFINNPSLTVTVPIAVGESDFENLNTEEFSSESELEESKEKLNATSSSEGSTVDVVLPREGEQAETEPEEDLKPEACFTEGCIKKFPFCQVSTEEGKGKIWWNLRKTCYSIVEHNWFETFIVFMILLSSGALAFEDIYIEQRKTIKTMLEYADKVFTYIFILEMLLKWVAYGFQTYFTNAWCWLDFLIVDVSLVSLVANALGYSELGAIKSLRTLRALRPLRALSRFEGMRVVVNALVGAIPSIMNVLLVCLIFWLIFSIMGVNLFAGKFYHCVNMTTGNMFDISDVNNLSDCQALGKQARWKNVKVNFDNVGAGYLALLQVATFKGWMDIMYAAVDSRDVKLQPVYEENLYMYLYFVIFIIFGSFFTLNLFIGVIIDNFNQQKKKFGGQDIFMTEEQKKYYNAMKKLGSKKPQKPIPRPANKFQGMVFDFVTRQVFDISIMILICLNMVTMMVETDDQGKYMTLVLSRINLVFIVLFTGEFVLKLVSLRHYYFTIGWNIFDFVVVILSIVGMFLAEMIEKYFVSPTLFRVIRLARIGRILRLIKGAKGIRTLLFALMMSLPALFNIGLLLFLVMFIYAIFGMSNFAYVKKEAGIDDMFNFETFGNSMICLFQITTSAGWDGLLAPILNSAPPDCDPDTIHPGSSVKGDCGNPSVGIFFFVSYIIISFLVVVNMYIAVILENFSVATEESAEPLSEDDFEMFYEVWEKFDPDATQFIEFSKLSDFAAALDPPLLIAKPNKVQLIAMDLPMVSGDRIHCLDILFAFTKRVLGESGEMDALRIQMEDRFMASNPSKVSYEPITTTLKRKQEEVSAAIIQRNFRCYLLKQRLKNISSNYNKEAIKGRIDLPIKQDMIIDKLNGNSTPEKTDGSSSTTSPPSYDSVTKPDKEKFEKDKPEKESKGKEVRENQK

As for `CC[C@H](C)[C@@H]1NC(=O)[C@@H]2CSSC[C@@H]3NC(=O)[C@H](C(C)C)NC(=O)[C@H](CC(C)C)NC(=O)[C@H](CC(N)=O)NC(=O)[C@@H]4CCCN4C(=O)[C@H](CCCNC(=N)N)NC(=O)[C@H](CSSC[C@H](NC(=O)[C@@H](N)CC(=O)O)C(=O)N[C@@H](CC(C)C)C(=O)NCC(=O)N[C@@H](Cc4ccccc4)C(=O)N[C@@H](CCSC)C(=O)N[C@@H](CCCNC(=N)N)C(=O)N[C@@H](CCCCN)C(=O)N2)NC(=O)[C@H](CSSC[C@@H](C(=O)N[C@@H](CCCCN)C(=O)N[C@@H](Cc2ccc(O)cc2)C(=O)N[C@H](C(=O)N[C@@H](Cc2ccccc2)C(N)=O)C(C)C)NC(=O)[C@H](Cc2c[nH]c4ccccc24)NC(=O)[C@H](CCCCN)NC(=O)[C@H](Cc2c[nH]cn2)NC(=O)[C@H]([C@@H](C)O)NC(=O)[C@H](CCCNC(=N)N)NC(=O)[C@H](CO)NC3=O)NC(=O)[C@H](CCCCN)NC(=O)[C@H](CC(=O)O)NC(=O)[C@H](CC(N)=O)NC(=O)[C@H](Cc2ccc(O)cc2)NC(=O)[C@@H]2CCCN2C1=O` [compound 197] (H-DCLGFMRKCIPYNDKCCRPNLVCSRTHKWCKYVF-NH2; disulfide 2-17, 9-23, 16-30), the IC50 on hNav1.7 (Use) was found to be 98 nM; at hNav1.5 (Use) it was 6920 nM; on hNav1.3 (Use) it was 42 nM.
In the same order, the values of `CC[C@H](C)[C@@H]1NC(=O)[C@@H]2CSSC[C@@H]3NC(=O)[C@H](C(C)C)NC(=O)[C@H](CC(C)C)NC(=O)CNC(=O)[C@@H]4CCCN4C(=O)[C@H](CCCNC(=N)N)NC(=O)[C@H](CSSC[C@H](NC(=O)[C@@H](N)CC(=O)O)C(=O)N[C@@H](CC(C)C)C(=O)NCC(=O)N[C@@H](Cc4ccccc4)C(=O)N[C@@H](CCSC)C(=O)N[C@@H](CCCNC(=N)N)C(=O)N[C@@H](CCCCN)C(=O)N2)NC(=O)[C@H](CSSC[C@@H](C(=O)N[C@@H](CCCCN)C(=O)N[C@@H](Cc2ccc(O)cc2)C(=O)N[C@H](C(=O)N[C@@H](Cc2ccccc2)C(N)=O)C(C)C)NC(=O)[C@H](Cc2c[nH]c4ccccc24)NC(=O)[C@H](CCCCN)NC(=O)[C@H](Cc2c[nH]cn2)NC(=O)[C@H]([C@@H](C)O)NC(=O)[C@H](CCCNC(=N)N)NC(=O)[C@H](CO)NC3=O)NC(=O)[C@H](CCCCN)NC(=O)[C@H](CC(=O)O)NC(=O)[C@H](CC(N)=O)NC(=O)[C@H](CC(=O)O)NC(=O)[C@@H]2CCCN2C1=O` [compound 198] (H-DCLGFMRKCIPDNDKCCRPGLVCSRTHKWCKYVF-NH2; disulfide 2-17, 9-23, 16-30) are 229 nM, 9750 nM and 126 nM.
On to `CC[C@H](C)[C@@H]1NC(=O)[C@@H]2CSSC[C@@H]3NC(=O)[C@H](C(C)C)NC(=O)[C@H](CC(C)C)NC(=O)[C@H](Cc4ccccc4)NC(=O)[C@@H]4CCCN4C(=O)[C@H](CCCNC(=N)N)NC(=O)[C@H](CSSC[C@H](NC(=O)[C@@H](N)CC(=O)O)C(=O)N[C@@H](CC(C)C)C(=O)NCC(=O)N[C@@H](Cc4ccccc4)C(=O)N[C@@H](CCSC)C(=O)N[C@@H](CCCNC(=N)N)C(=O)N[C@@H](CCCCN)C(=O)N2)NC(=O)[C@H](CSSC[C@@H](C(=O)N[C@@H](CCCCN)C(=O)N[C@@H](Cc2ccc(O)cc2)C(=O)N[C@H](C(=O)N[C@@H](Cc2ccccc2)C(N)=O)C(C)C)NC(=O)[C@H](Cc2c[nH]c4ccccc24)NC(=O)[C@H](CCCCN)NC(=O)[C@H](Cc2c[nH]cn2)NC(=O)[C@H]([C@@H](C)O)NC(=O)[C@H](CCCNC(=N)N)NC(=O)[C@H](CO)NC3=O)NC(=O)[C@H](CCCCN)NC(=O)[C@H](CC(=O)O)NC(=O)[C@H](CC(N)=O)NC(=O)[C@H](CC(=O)O)NC(=O)[C@@H]2CCCN2C1=O` [compound 199] (H-DCLGFMRKCIPDNDKCCRPFLVCSRTHKWCKYVF-NH2; disulfide 2-17, 9-23, 16-30), for which the IC50 is 154 nM on hNav1.7 (Use), 10800 nM at hNav1.5 (Use) and 67 nM at hNav1.3 (Use).
In the same order, the values of `CC[C@H](C)[C@@H]1NC(=O)[C@@H]2CSSC[C@@H]3NC(=O)[C@H](C(C)C)NC(=O)[C@H](CC(C)C)NC(=O)[C@H](Cc4ccc(O)cc4)NC(=O)[C@@H]4CCCN4C(=O)[C@H](CCCNC(=N)N)NC(=O)[C@H](CSSC[C@H](NC(=O)[C@@H](N)CC(=O)O)C(=O)N[C@@H](CC(C)C)C(=O)NCC(=O)N[C@@H](Cc4ccccc4)C(=O)N[C@@H](CCSC)C(=O)N[C@@H](CCCNC(=N)N)C(=O)N[C@@H](CCCCN)C(=O)N2)NC(=O)[C@H](CSSC[C@@H](C(=O)N[C@@H](CCCCN)C(=O)N[C@@H](Cc2ccc(O)cc2)C(=O)N[C@H](C(=O)N[C@@H](Cc2ccccc2)C(N)=O)C(C)C)NC(=O)[C@H](Cc2c[nH]c4ccccc24)NC(=O)[C@H](CCCCN)NC(=O)[C@H](Cc2c[nH]cn2)NC(=O)[C@H]([C@@H](C)O)NC(=O)[C@H](CCCNC(=N)N)NC(=O)[C@H](CO)NC3=O)NC(=O)[C@H](CCCCN)NC(=O)[C@H](CC(=O)O)NC(=O)[C@H](CC(N)=O)NC(=O)[C@H](CC(=O)O)NC(=O)[C@@H]2CCCN2C1=O` [compound 200] (H-DCLGFMRKCIPDNDKCCRPYLVCSRTHKWCKYVF-NH2; disulfide 2-17, 9-23, 16-30) are 116 nM, 9050 nM and 55 nM.
Consider `CC[C@H](C)[C@@H]1NC(=O)[C@@H]2CSSC[C@@H]3NC(=O)[C@H](C(C)C)NC(=O)[C@H](CC(C)C)NC(=O)[C@H](CC(N)=O)NC(=O)[C@@H]4CCCN4C(=O)[C@H](CCCNC(=N)N)NC(=O)[C@H](CSSC[C@H](NC(=O)[C@@H](N)CC(=O)O)C(=O)N[C@@H](CC(C)C)C(=O)NCC(=O)N[C@@H](Cc4ccccc4)C(=O)N[C@@H](CCSC)C(=O)N[C@@H](CCCNC(=N)N)C(=O)N[C@@H](CCCCN)C(=O)N2)NC(=O)[C@H](CSSC[C@@H](C(=O)N[C@@H](CCCCN)C(=O)N[C@@H](Cc2cn(C)c4ccccc24)C(=O)N[C@H](C(=O)N[C@@H](Cc2ccccc2)C(N)=O)C(C)C)NC(=O)[C@H](Cc2c[nH]c4ccccc24)NC(=O)[C@H](CCCCN)NC(=O)[C@H](Cc2c[nH]cn2)NC(=O)[C@H]([C@@H](C)O)NC(=O)[C@H](CCCNC(=N)N)NC(=O)[C@H](CO)NC3=O)NC(=O)[C@H](CCCCN)NC(=O)[C@H](CC(=O)O)NC(=O)[C@H](CC(N)=O)NC(=O)[C@H](CC(=O)O)NC(=O)[C@@H]2CCCN2C1=O` [compound 246] (H-DCLGFMRKCIPDNDKCCRPNLVCSRTHKWCK[Trp(1-Me)]VF-NH2; disulfide 2-17, 9-23, 16-30), for which the IC50 at hNav1.7 (Table 25, use, […]) was 60 nM; on hNav1.5 (Table 25, use, […]), 14400 nM; on hNav1.3 (Table 25, use, […]) it was 30 nM.
In the case of `CC[C@H](C)[C@H](NC(=O)[C@H](Cc1ccc(O)cc1)NC(=O)[C@H](CCCCN)NC(=O)[C@@H]1CSSC[C@@H]2NC(=O)[C@H](CCCCN)NC(=O)[C@H](CC(=O)O)NC(=O)[C@H](CC(N)=O)NC(=O)[C@H](CC(=O)O)NC(=O)[C@@H]3CCCN3C(=O)[C@H]([C@@H](C)CC)NC(=O)[C@@H]3CSSC[C@H](NC(=O)[C@H](C(C)C)NC(=O)[C@H](CC(C)C)NC(=O)[C@H](CC(N)=O)NC(=O)[C@@H]4CCCN4C(=O)[C@H](CCCNC(=N)N)NC(=O)[C@H](CSSC[C@H](NC(=O)[C@@H](N)CC(=O)O)C(=O)N[C@@H](CC(C)C)C(=O)NCC(=O)N[C@@H](Cc4ccccc4)C(=O)N[C@@H](CCSC)C(=O)N[C@@H](CCCNC(=N)N)C(=O)N[C@@H](CCCCN)C(=O)N3)NC2=O)C(=O)N[C@@H](CO)C(=O)N[C@@H](CCCNC(=N)N)C(=O)N[C@@H]([C@@H](C)O)C(=O)N[C@@H](Cc2c[nH]cn2)C(=O)N[C@@H](CCCCN)C(=O)N[C@@H](Cc2c[nH]c3ccccc23)C(=O)N1)C(=O)N[C@@H](Cc1ccccc1)C(N)=O` [compound 248] (H-DCLGFMRKCIPDNDKCCRPNLVCSRTHKWCKYIF-NH2; disulfide 2-17, 9-23, 16-30), the IC50 at hNav1.7 (Table 26, use, […]) was found to be 150 nM; at hNav1.5 (Table 26, use, […]) it was 6890 nM; on hNav1.3 (Table 26, use, […]), 90 nM.
Regarding `CC[C@H](C)[C@@H]1NC(=O)[C@@H]2CSSC[C@@H]3NC(=O)[C@H](C(C)C)NC(=O)[C@H](CC(C)C)NC(=O)[C@H](CC(N)=O)NC(=O)[C@@H]4CCCN4C(=O)[C@H](CCCNC(=N)N)NC(=O)[C@H](CSSC[C@H](NC(=O)[C@@H](N)CC(=O)O)C(=O)N[C@@H](CC(C)C)C(=O)NCC(=O)N[C@@H](Cc4ccccc4)C(=O)N[C@@H](CCSC)C(=O)N[C@@H](CCCNC(=N)N)C(=O)N[C@@H](CCCCN)C(=O)N2)NC(=O)[C@H](CSSC[C@@H](C(=O)N[C@@H](CCCCN)C(=O)N[C@@H](Cc2ccc(O)cc2)C(=O)N[C@@H](Cc2ccc(I)cc2)C(=O)N[C@@H](Cc2ccccc2)C(N)=O)NC(=O)[C@H](Cc2c[nH]c4ccccc24)NC(=O)[C@H](CCCCN)NC(=O)[C@H](Cc2c[nH]cn2)NC(=O)[C@H]([C@@H](C)O)NC(=O)[C@H](CCCNC(=N)N)NC(=O)[C@H](CO)NC3=O)NC(=O)[C@H](CCCCN)NC(=O)[C@H](CC(=O)O)NC(=O)[C@H](CC(N)=O)NC(=O)[C@H](CC(=O)O)NC(=O)[C@@H]2CCCN2C1=O` [compound 249] (H-DCLGFMRKCIPDNDKCCRPNLVCSRTHKWCKY[Phe(4-I)]F-NH2; disulfide 2-17, 9-23, 16-30), the IC50 on hNav1.7 (Table 26, use, […]) is 90 nM; on hNav1.5 (Table 26, use, […]) it was 7780 nM; on hNav1.3 (Table 26, use, […]) it was 60 nM.

These data come from patent publication US9340590B2 (priority 2011, dated 2016).
